This is an account of results in patent US7314970B2, “Method for plant breeding” (priority 1997, dated 2008).

One data set has as its system most plant species. The settings on record: most plant species (Franz, 1985), but not all; cited from earlier work.
Data set [1] has as its system DK580 and DK626 hybrids of FI117, GA21, GG25 and GJ11. Kind of data set: Yield effect of glyphosate application on DK580 and DK626 hybrids (field test). In kind it is in vivo, maize. The procedure: Tests were designed as four row, 3 rep., split-split-plot with main plots as hybrids, subplots as transformant sources (i.e. GA21, GG25, FI117, and GJ11) and subplots as timing/rate combinations […]. Statistical methods for design and analysis of data derived from experimental field plots are described in Gomez and Gomez, (1984). Tests were conducted in Dekalb, Ill., and Thomasboro, Ill. during 1996. All rows were planted at double normal planting density, i.e., 60 seeds per row, because hybrids segregated 1:1 for the glyphosate resistance trait. Sprayed plants were thinned to 30 plants per row no sooner than 7 days after application of Roundup at a time when Roundup susceptible plants could be identified. Unsprayed plots were thinned to 30 plants per row at the same time. […] After thinning, the mean extended leaf height was measured on 10 resistant plants per plot. […]
Four DK580 and four DK626 hybrids, each containing a different mutant EPSPS transgene from one of the GA21, FI117, GJ11 or GG25 transformation events, were field tested for possible effects on yield with glyphosate application as described in Example 12, with treatments as shown in FIG. 13. […] Data were analyzed using the SAS PROC MIXED and PROC SUM procedures. […]

The subject of data set [2] is DK580 and DK626 BC4 hybrids of FI117, GA21, GG25 and GJ11. Kind of data set: Effect of glyphosate application on growth and fertility of DK580 and DK626 hybrids (field test). The data set is classed as in vivo, maize. The text has this: BC4 hybrids of DK580 and DK626 were produced containing one of the FI117, GA21, GG25 or GJ11 transformation events as described in example 14. Comparisons of the effect of glyphosate application on growth (mean extended leaf height) and male fertility was compared at both the V4 and V8 developmental stage. The developmental scale that was used to rate the corn plants is well known in the art, and is described in Special Report No. 48, Iowa State University of Science and Technology, Cooperative Extension Service, Ames, Iowa. Each of the hybrids was studied at both the V4 and V8 stage using 0× glyphosate (i.e. water only), 1× glyphosate, or 4× glyphosate (the 1× level corresponds to 16 ounces/acre of ROUNDUP ULTRA™).
Tests were designed as four row, 3 rep., split-split-plot with main plots as hybrids, subplots as transformant sources (i.e. GA21, GG25, FI117, and GJ11) and subplots as timing/rate combinations […]. Statistical methods for design and analysis of data derived from experimental field plots are described in Gomez and Gomez, (1984). Tests were conducted in Dekalb, Ill., and Thomasboro, Ill. during 1996. All rows were planted at double normal planting density, i.e., 60 seeds per row, because hybrids segregated 1:1 for the glyphosate resistance trait. Sprayed plants were thinned to 30 plants per row no sooner than 7 days after application of Roundup at a time when Roundup susceptible plants could be identified. Unsprayed plots were thinned to 30 plants per row at the same time. At 5-10 days after herbicide application, the following data was collected in each row: number of dead plants, number of damaged plants, and number of normal plants. After thinning, the mean extended leaf height was measured on 10 resistant plants per plot. During the remainder of the growing season the following agronomic data was collected: early stand count, seedling vigor, final stand count, plant height, ear height, intactness, stay green, number of barren plants, number of male-sterile plants, number of dropped ears, number of root lodged plants, number of stalks lodged plants, shelled grain weight, per cent grain moisture at harvest, and test weight.

Turning to `NCP(=O)(O)O` [AMPA, aminomethylphosphonate], the “phytotoxicity relative to glyphosate” value in the data set with most plant species is reported as “much less phytotoxic than glyphosate”.
With `O=C(O)CNCP(=O)(O)O` [glyphosate, N-phosphonomethyl-glycine], the effect on yield entry is listed as “significant decreases in yield are not observed for 3 of the 4 DK580 hybrids” in data set [1] (DK580 hybrids, glyphosate applied at V4 stage) and “no significant loss in yield” in data set [1] (DK626 hybrids with GA21 or FI117, V8 stage, 4× rate). Moreover, the male fertility entry was “male-fertile plants” in data set [2] (all 4 GA21 treatments); “male-fertile” in data set [2] (application at V4 stage, all plants); “male sterile plants” in data set [2] (application at V8 stage, only GJ11 and GJ25 treatments). The “resistance to glyphosate (mean extended leaf height)” value in data set [2] (all 4 transformation events, 1× and 4× application levels (1× = 16 ounces/acre ROUNDUP ULTRA)) is reported as “significant resistance”.
